Measured values published in ChEMBL document CHEMBL4765419, “Design, synthesis and bioactivity evaluation of novel arylalkene-amide derivatives as dual-target antifungal inhibitors” (Eur J Med Chem, 2020).
Calls of active or inactive are those of the source. No cut-off for these calls is given here.

What was measured:
[1] = Toxicity in mouse infected with Candida albicans assessed as change in kidney morphology administered via abdomen for 7 days by H and E staining based histological analysis; conditions: in vivo, ip, 168 h, time 7 day
[2] = Toxicity in mouse infected with Candida albicans assessed as change in spleen morphology administered via abdomen for 7 days by H and E staining based histological analysis; conditions: in vivo, ip, 168 h, time 7 day
[3] = system: Candida albicans; assay: In vivo antifungal activity against Candida albicans infected in mouse assessed as reduction in tissue infection injected via abdomen for 7 days by H and E staining based histological analysis; format: functional, organism-based; conditions: time 7.0 day
[4] = Toxicity in mouse infected with Candida albicans assessed as change in lung morphology administered via abdomen for 7 days by H and E staining based histological analysis; conditions: in vivo, ip, 168 h, time 7 day
[5] = system: Aspergillus fumigatus; assay: Antifungal activity against Aspergillus fumigatus assessed as inhibition of microbial growth by two fold broth microdilution method; format: functional
[6] = Hepatotoxicity in mouse infected with Candida albicans assessed as effect on alanine aminotransferase level in plasma administered via abdomen for 7 days (reference value: 102 +/-9.2 IU/L); format: toxicity; conditions: ip, 168 h, time 7 day
[7] = system: Candida albicans; assay: In vivo antifungal activity against Candida albicans infected in mouse assessed as uniform cell distribution injected via abdomen for 7 days by H and E staining based histological analysis; format: functional, organism-based; conditions: time 7.0 day
[8] = system: Candida albicans; assay: In vivo antifungal activity against Candida albicans infected in mouse assessed as disappearance of infected positions injected via abdomen for 7 days by H and E staining based histological analysis; format: functional, organism-based; conditions: time 7.0 day
[9] = system: Candida albicans; assay: Antifungal activity against Candida albicans assessed as inhibition of microbial growth by two fold broth microdilution method; format: functional
[10] = system: Candida albicans SC5314; assay: Inhibition of SE/CYP51 in Candida albicans ATCC SC5314 assessed as ergosterol level at 4 ug/ml incubated for 16 hrs by LC/MS analysis (reference value: 79.43 %); parameters: scale not given: the % may be the effect or the level left; conditions: dose 4.0 µg/ml
[11] = system: Candida albicans; assay: Antifungal activity against fluconazole-resistant Candida albicans 17# assessed as inhibition of microbial growth by two fold broth microdilution method; format: functional
[12] = Toxicity in mouse infected with Candida albicans assessed as change in heart morphology administered via abdomen for 7 days by H and E staining based histological analysis; conditions: in vivo, ip, 168 h, time 7 day
[13] = system: Candida tropicalis; assay: Antifungal activity against Candida tropicalis assessed as inhibition of microbial growth by two fold broth microdilution method; format: functional
[14] = system: Candida albicans; assay: Antifungal activity against fluconazole-resistant Candida albicans 901 assessed as inhibition of microbial growth by two fold broth microdilution method; format: functional
[15] = system: Pichia kudriavzevii; assay: Antifungal activity against Candida krusei assessed as inhibition of microbial growth by two fold broth microdilution method; format: functional
[16] = Toxicity in mouse infected with Candida albicans assessed as change in liver morphology administered via abdomen for 7 days by H and E staining based histological analysis; conditions: in vivo, ip, 168 h, time 7 day
[17] = system: Candida albicans SC5314; assay: Inhibition of SE/CYP51 in Candida albicans ATCC SC5314 assessed as unidentified sterol level at 4 ug/ml incubated for 16 hrs by LC/MS analysis (reference value: 7.03 %); parameters: scale not given: the % may be the effect or the level left; conditions: dose 4.0 µg/ml
[18] = system: Candida albicans; assay: Antifungal activity against fluconazole-resistant Candida albicans 632 assessed as inhibition of microbial growth by two fold broth microdilution method; format: functional
[19] = Stability in human plasma incubated for 60 mins; format: ADME, cell-free; conditions: read-out: Stabilty
[20] = system: Candida albicans; assay: Antifungal activity against fluconazole-resistant Candida albicans CaR assessed as inhibition of microbial growth by two fold broth microdilution method; format: functional
[21] = Stability in human plasma incubated for 120 mins; format: ADME, cell-free; conditions: read-out: Stabilty
[22] = system: Candida albicans; assay: In vivo antifungal activity against Candida albicans infected in mouse assessed as disappearance of cell nuclear aggregation injected via abdomen for 7 days by H and E staining based histological analysis; format: functional, organism-based; conditions: time 7.0 day
[23] = Renal toxicity in mouse infected with Candida albicans assessed as effect on blood urea nitrogen level administered via abdomen for 7 days (reference value: 6.7 +/-0.3 mmol/L); conditions: in vivo, ip, 168 h, time 7 day
[24] = Toxicity in mouse infected with Candida albicans assessed as change in body weight administered via abdomen for 7 days; conditions: in vivo, ip, 168 h, time 7 day
[25] = system: Candida albicans SC5314; assay: Inhibition of SE/CYP51 in Candida albicans ATCC SC5314 assessed as eburicol level at 4 ug/ml incubated for 16 hrs by LC/MS analysis (reference value: 4.67 %); parameters: scale not given: the % may be the effect or the level left; conditions: dose 4.0 µg/ml
[26] = system: Nakaseomyces glabratus; assay: Antifungal activity against Candida glabrata assessed as inhibition of microbial growth by two fold broth microdilution method; format: functional
[27] = system: Candida albicans; assay: Antifungal activity against fluconazole-resistant Candida albicans 904 assessed as inhibition of microbial growth by two fold broth microdilution method; format: functional
[28] = system: Candida albicans SC5314; assay: Inhibition of SE/CYP51 in Candida albicans ATCC SC5314 assessed as squalene level at 4 ug/ml incubated for 16 hrs by LC/MS analysis (reference value: 2.25 %); parameters: scale not given: the % may be the effect or the level left; conditions: dose 4.0 µg/ml
[29] = Hepatotoxicity in mouse infected with Candida albicans assessed as aspartate aminotransferase level in plasma administered via abdomen for 7 days (reference value: 109.4 +/-4.8 IU/L); format: toxicity; conditions: ip, 168 h, time 7 day
[30] = system: Candida albicans SC5314; assay: Inhibition of SE/CYP51 in Candida albicans ATCC SC5314 assessed as lanosterol level at 4 ug/ml incubated for 16 hrs by LC/MS analysis (reference value: 6.62 %); parameters: scale not given: the % may be the effect or the level left; conditions: dose 4.0 µg/ml
[31] = system: Candida albicans; assay: Antifungal activity against Candida albicans ATCC SC5314 assessed as decrease in fungal cell density by polarizing microscopy; format: functional, organism-based
[32] = system: Candida albicans SC5314; assay: Inhibition of CYP51 in Candida albicans ATCC SC5314 assessed as ergosterol level at 4 ug/ml incubated for 16 hrs by LC/MS analysis (reference value: 79.43 %); parameters: scale not given: the % may be the effect or the level left; conditions: dose 4.0 µg/ml
[33] = system: Candida albicans SC5314; assay: Inhibition of CYP51 in Candida albicans ATCC SC5314 assessed as eburicol level at 4 ug/ml incubated for 16 hrs by LC/MS analysis (reference value: 4.67 %); parameters: scale not given: the % may be the effect or the level left; conditions: dose 4.0 µg/ml
[34] = system: Candida albicans SC5314; assay: Inhibition of CYP51 in Candida albicans ATCC SC5314 assessed as unidentified sterol level at 4 ug/ml incubated for 16 hrs by LC/MS analysis (reference value: 7.03 %); parameters: scale not given: the % may be the effect or the level left; conditions: dose 4.0 µg/ml
[35] = system: Candida albicans SC5314; assay: Inhibition of CYP51 in Candida albicans ATCC SC5314 assessed as lanosterol level at 4 ug/ml incubated for 16 hrs by LC/MS analysis (reference value: 6.62 %); parameters: scale not given: the % may be the effect or the level left; conditions: dose 4.0 µg/ml
[36] = system: Candida albicans SC5314; assay: Inhibition of CYP51 in Candida albicans ATCC SC5314 assessed as squalene level at 4 ug/ml incubated for 16 hrs by LC/MS analysis (reference value: 2.25 %); parameters: scale not given: the % may be the effect or the level left; conditions: dose 4.0 µg/ml
[37] = system: Candida albicans; assay: Antifungal activity against Candida albicans ATCC SC5314 assessed as cell lysis at 4 ug/ml […] by TEM analysis; format: functional, organism-based; conditions: dose 4.0 µg/ml
[38] = system: Candida albicans; assay: Antifungal activity against Candida albicans ATCC SC5314 assessed as edema cavitation at 4 ug/ml incubated for 72 hrs by TEM analysis; format: functional, organism-based; conditions: dose 4.0 µg/ml
[39] = system: Candida albicans; assay: Antifungal activity against Candida albicans ATCC SC5314 assessed as nuclear membrane cleavage at 4 ug/ml incubated for 72 hrs by TEM analysis; format: functional, organism-based; conditions: dose 4.0 µg/ml
[40] = system: Candida albicans; assay: Antifungal activity against Candida albicans ATCC SC5314 assessed as vesicles formation at 4 ug/ml incubated for 72 hrs by TEM analysis; format: functional, organism-based; conditions: dose 4.0 µg/ml
[41] = system: Candida albicans; assay: Antifungal activity against Candida albicans ATCC SC5314 assessed as loss of cell permeability at 4 ug/ml incubated for 72 hrs by TEM analysis; format: functional, organism-based; conditions: dose 4.0 µg/ml
[42] = system: Candida albicans; assay: Antifungal activity against Candida albicans ATCC SC5314 assessed as leakage of endogenous substances at 4 ug/ml incubated for 72 hrs by TEM analysis; format: functional, organism-based; conditions: dose 4.0 µg/ml
[43] = system: Candida albicans; assay: Antifungal activity against Candida albicans ATCC SC5314 assessed as disappearance of fungal cell boundaries at 4 ug/ml incubated for 72 hrs by TEM analysis; format: functional, organism-based; conditions: dose 4.0 µg/ml
[44] = system: Candida albicans; assay: Antifungal activity against Candida albicans ATCC SC5314 assessed as irregular cell structure at 4 ug/ml incubated for 72 hrs by TEM analysis; format: functional, organism-based; conditions: dose 4.0 µg/ml

In the case of `O=C(/C=C/c1cccc2ccccc12)NC(Cn1ccnc1)C(=O)Nc1ccccc1` (stereo unspecified), the Activity [1] is reported as “Non-Toxic”, the Activity [2] is reported as “Non-Toxic” and the Activity [3] is reported as “Active”. The Activity [4] was “Non-Toxic”, the MIC [5] was 4 µg/mL and the Activity [6] was 105 IU/L. For the same compound, the Activity [7] was “Active”, the Activity [8] was “Active” and the MIC [9] was 0.125 µg/mL. For the same compound, the Activity [10] was 10.7%, the MIC [11] was 4 µg/mL and the Activity [12] was “Non-Toxic”. The MIC [13] was 0.25 µg/mL, the MIC [14] was 8 µg/mL and the MIC [15] was 0.25 µg/mL. The Activity [16] was “Non-Toxic”, the Activity [17] was 5.46% and the MIC [18] was 8 µg/mL. For the same compound, the remaining at 1 h [19] was 89.7%, the MIC [20] was 8 µg/mL and the remaining at 2 h [21] was 84.1%. The Activity [22] was “Active”, the Activity [23] was 6.9 mmol/L and the Activity [24] was “Non-Toxic”. For the same compound, the Activity [25] was 40.1%, the MIC [26] was 0.125 µg/mL and the MIC [27] was over 16 µg/mL. For the same compound, the Activity [28] was 29.1%, the Activity [29] was 101.5 IU/L and the Activity [30] was 14.5%. For the same compound, the Activity [31] was “Active”.

With `OC(Cn1cncn1)(Cn1cncn1)c1ccc(F)cc1F` [FLUCONAZOLE] the MIC [5] was over 16 µg/mL, the Activity [32] was 7.62% and the MIC [9] was 0.25 µg/mL. For the same compound, the MIC [11] was over 16 µg/mL, the Activity [33] was 65.5% and the MIC [13] was 0.5 µg/mL. The MIC [14] was over 16 µg/mL, the MIC [15] was 1 µg/mL and the Activity [34] was 9.26%. For the same compound, the MIC [18] was over 16 µg/mL, the MIC [20] was over 16 µg/mL and the MIC [26] was 0.5 µg/mL. It also gave an MIC [27] of over 16 µg/mL, an Activity [35] of 13.9% and an Activity [36] of 3.68%. The Activity [31] was “Active”.

With `O=C(NCc1ccncc1)C(=O)N/N=C/c1cccc2ccccc12` the Activity [1] was “Non-Toxic”, the Activity [2] was “Non-Toxic” and the Activity [3] was “Active”. For the same compound, the Activity [4] was “Non-Toxic”, the Activity [37] was “Active” and the Activity [38] was “Active”. The MIC [5] was 2 µg/mL, the Activity [6] was 117 IU/L and the Activity [7] was “Active”. For the same compound, the Activity [8] was “Active”, the MIC [9] was 0.125 µg/mL and the Activity [10] was 8.27%. For the same compound, the MIC [11] was 4 µg/mL, the Activity [12] was “Non-Toxic” and the MIC [13] was 0.125 µg/mL. For the same compound, the Activity [39] was “Active”, the MIC [14] was 4 µg/mL and the MIC [15] was 0.5 µg/mL. For the same compound, the Activity [40] was “Active”, the Activity [16] was “Non-Toxic” and the Activity [17] was 4.71%. The MIC [18] was 8 µg/mL, the remaining at 1 h [19] was 92.3% and the MIC [20] was 4 µg/mL. The Activity [41] was “Active”, the remaining at 2 h [21] was 86.5% and the Activity [22] was “Active”. The Activity [23] was 7.1 mmol/L, the Activity [24] was “Non-Toxic” and the Activity [25] was 32.8%. For the same compound, the MIC [26] was 0.25 µg/mL, the MIC [27] was 8 µg/mL and the Activity [28] was 42.9%. For the same compound, the Activity [42] was “Active”, the Activity [43] was “Active” and the Activity [29] was 112.7 IU/L. For the same compound, the Activity [30] was 11.3%, the Activity [44] was “Active” and the Activity [31] was “Active”.
